Assays:
Assay type in all cases: cell-based
[1] = system: Wnt activity (Sp5-Luc reporter, human Sp5 promoter with eight TCF/LEF binding sites) in SW480 colon carcinoma cells; assay: Screening assay for Wnt activity: Sp5-Luc reporter gene assay in SW480 cells; conditions: for EC50: 10-point dose-response starting from 10 μM, overnight incubation; for inhibition at 10 µM: read-out: percent inhibition at 10 μM (given for EC50 of >10 μM)
In short: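 SW480 cells stably carrying Sp5-Luc reporter (eight TCF/LEF sites) plated at 4,000/well in 1% FBS medium with compound (10-point 1:3 series from 10 μM, 0.1% DMSO) overnight at 37 °C. BrightGlo luminescence normalized to DMSO; EC50 by four-parameter fit, else % inhibition at 10 μM.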

SW480 colon cancer cells = assay: Cell viability assay (CellTiter-Blue) in SW480 colon cancer cells; conditions: Homo sapiens, 96 h; for EC50: four days incubation, CellTiter-Blue cell viability; for inhibition at 10 µM: four days, CellTiter-Blue, read-out: percent inhibition at 10 μM (given for EC50 of >10 μM)
In short: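 About 2×10^3 SW480 colon cancer cells per well were exposed to compound (8-point 1:3 dilutions, 10 μM to 0.004 μM) for four days at 37 °C. Viability was read by CellTiter-Blue resazurin reduction (~3 h, Ex 560/Em 590). EC50 from nonlinear regression; above 10 μM, % inhibition at 10 μM is reported.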

[2] = system: LL29 cells (primary human fibroblasts derived from IPF patients) treated with TGF-β1, α-smooth muscle actin; assay: Inhibition of the fibrotic process: αSMA staining in TGF-β1 treated primary human fibroblasts from IPF patients (LL29 cells); conditions: Fibroblast, 96 h; for EC50: LL29 cells treated with TGF-β1 (20 ng/mL), 4 days; for inhibition at 10 µM: LL29 cells treated with TGF-β1, 4 days, read-out: percent inhibition in brackets (given for EC50 >10 μM)

| Compound | EC50 [1] | EC50 (SW480 colon cancer cells) | EC50 [2] | inhibition at 10 µM [2] | inhibition at 10 µM [1] | inhibition at 10 µM (SW480 colon cancer cells) |
| --- | --- | --- | --- | --- | --- | --- |
| CN(C)c1cncc(-c2ccc3[nH]nc(-c4nc5c(-c6cccc(F)c6)cncc5[nH]4)c3n2)c1 [Compound 7, 5-(3-(7-(3-Fluorophenyl)-3H-imidazo[4,5-c]pyridin-2-yl)-1H-pyrazolo[4,3-b]pyridin-5-yl)-N,N-dimethylpyridin-3-amine] | 638 nM | 860 nM | > 10000 nM | 0% |  |  |
| CN(C)Cc1cncc(-c2ccc3[nH]nc(-c4nc5c(-c6cccc(F)c6)cncc5[nH]4)c3n2)c1 [Compound 13, 1-(5-(3-(7-(3-Fluorophenyl)-3H-imidazo[4,5-c]pyridin-2-yl)-1H-pyrazolo[4,3-b]pyridin-5-yl)pyridin-3-yl)-N,N-dimethylmethanamine] | 1100 nM | 784 nM | 479 nM |  |  |  |
| O=C(Nc1cncc(-c2ccc3[nH]nc(-c4nc5c(-c6cccc(F)c6)cncc5[nH]4)c3n2)c1)C1CC1 [Compound 20, N-(5-(3-(7-(3-Fluorophenyl)-3H-imidazo[4,5-c]pyridin-2-yl)-1H-pyrazolo[4,3-b]pyridin-5-yl)pyridin-3-yl)cyclopropanecarboxamide] | > 10000 nM | > 10000 nM | > 10000 nM | 0% | 7% | 5.1% |
| Fc1cccc(-c2cncc3[nH]c(-c4n[nH]c5ccc(-c6cncc(CN7CCC(F)(F)C7)c6)nc45)nc23)c1 [Compound 26, 5-(5-((3,3-Difluoropyrrolidin-1-yl)methyl)pyridin-3-yl)-3-(7-(3-fluorophenyl)-3H-imidazo[4,5-c]pyridin-2-yl)-1H-pyrazolo[4,3-b]pyridine] | 1090 nM | 980 nM | 6220 nM |  |  |  |
| CC(C)(C)C(=O)Nc1cncc(-c2ccc3[nH]nc(-c4nc5c(-c6ccc(F)cc6)cncc5[nH]4)c3n2)c1 [Compound 36, N-(5-(3-(7-(4-Fluorophenyl)-3H-imidazo[4,5-c]pyridin-2-yl)-1H-pyrazolo[4,3-b]pyridin-5-yl)pyridin-3-yl)pivalamide] | 2730 nM | 6230 nM | 1220 nM |  |  |  |
| Fc1ccc(-c2cncc3[nH]c(-c4n[nH]c5ccc(-c6cncc(CN7CCCC7)c6)nc45)nc23)cc1 [Compound 42, 3-(7-(4-Fluorophenyl)-3H-imidazo[4,5-c]pyrid-2-yl)-5-(5-(pyrrolidin-1-ylmethyl)pyridin-3-yl)-1H-pyrazolo[4,3-b]pyridine] | 3350 nM | 1050 nM | 2470 nM |  |  |  |
| Fc1ccccc1-c1cncc2[nH]c(-c3n[nH]c4ccc(-c5ccccn5)nc34)nc12 [Compound 84, 3-(7-(2-Fluorophenyl)-3H-imidazo[4,5-c]pyridin-2-yl)-5-(pyridin-2-yl)-1H-pyrazolo[4,3-b]pyridine] | 644 nM | 362 nM | > 10000 nM | 29.7% |  |  |
| CC(C)Nc1cncc(-c2ccc3[nH]nc(-c4nc5c(-c6cccnc6)cncc5[nH]4)c3n2)c1 [Compound 96, N-Isopropyl-5-(3-(7-(pyridin-3-yl)-3H-imidazo[4,5-c]pyridin-2-yl)-1H-pyrazolo[4,3-b]pyridin-5-yl)pyridin-3-amine] | 1350 nM | 6190 nM | 3090 nM |  |  |  |
| CN(C)c1cncc(-c2ccc3[nH]nc(-c4nc5c(N6CCCCC6)cncc5[nH]4)c3n2)c1 [Compound 175, N,N-dimethyl-5-(3-(7-(piperidin-1-yl)-3H-imidazo[4,5-c]pyridin-2-yl)-1H-pyrazolo[4,3-b]pyridin-5-yl)pyridin-3-amine] | 3970 nM | 3840 nM | 1310 nM |  |  |  |
| Cc1ccncc1-c1ccc2[nH]nc(-c3nc4c(-c5ccsc5)cncc4[nH]3)c2n1 [Compound 257, 5-(4-Methylpyridin-3-yl)-3-(7-(thiophen-3-yl)-3H-imidazo[4,5-c]pyridin-2-yl)-1H-pyrazolo[4,3-b]pyridine] | 641 nM | 856 nM | 8550 nM |  |  |  |
| CCCC(=O)Nc1cncc(-c2ccc3[nH]nc(-c4nc5c(-c6ccsc6)cncc5[nH]4)c3n2)c1 [Compound 269, N-(5-(3-(7-(Thiophen-3-yl)-3H-imidazo[4,5-c]pyridin-2-yl)-1H-pyrazolo[4,3-b]pyridin-5-yl)pyridin-3-yl)butyramide] | 3720 nM | 3440 nM | 7220 nM |  |  |  |
| FC1(F)CCN(Cc2cncc(-c3ccc4[nH]nc(-c5nc6c(-c7ccsc7)cncc6[nH]5)c4n3)c2)C1 [Compound 278, 5-(5-((3,3-difluoropyrrolidin-1-yl)methyl)pyridin-3-yl)-3-(7-(thiophen-3-yl)-3H-imidazo[4,5-c]pyridin-2-yl)-1H-pyrazolo[4,3-b]pyridine] | 1040 nM | 1020 nM | 1700 nM |  |  |  |
| CC(C)Nc1cncc(-c2ccc3[nH]nc(-c4nc5c(-c6ccoc6)cncc5[nH]4)c3n2)c1 [Compound 292, 5-(3-(7-(Furan-3-yl)-3H-imidazo[4,5-c]pyridin-2-yl)-1H-pyrazolo[4,3-b]pyridin-5-yl)-N-isopropylpyridin-3-amine] | 597 nM | 646 nM | 1150 nM |  |  |  |
| c1cc(-c2cncc3[nH]c(-c4n[nH]c5ccc(-c6cncc(CNCC7CCCC7)c6)nc45)nc23)co1 [Compound 305, 1-Cyclopentyl-N-((5-(3-(7-(furan-3-yl)-3H-imidazo[4,5-c]pyridin-2-yl)-1H-pyrazolo[4,3-b]pyridin-5-yl)pyridin-3-yl)methyl)methanamine] | 8610 nM | 4610 nM | > 10000 nM | 0% |  |  |
| CN(C)c1cncc(-c2ccc3[nH]nc(-c4nc5c(-c6cccs6)cncc5[nH]4)c3n2)c1 [Compound 315, N,N-Dimethyl-5-(3-(7-(thiophen-2-yl)-3H-imidazo[4,5-c]pyridin-2-yl)-1H-pyrazolo[4,3-b]pyridin-5-yl)pyridin-3-amine] | 710 nM | > 10000 nM | > 10000 nM | 34.3% |  | 43.8% |
| Cc1ccc(-c2cncc3[nH]c(-c4n[nH]c5ccc(-c6cncc(N)c6)nc45)nc23)s1 [Compound 367, 5-(3-(7-(5-Methylthiophen-2-yl)-3H-imidazo[4,5-c]pyridin-2-yl)-1H-pyrazolo[4,3-b]pyridin-5-yl)pyridin-3-amine] | 41 nM | 97 nM | 815 nM |  |  |  |
| CC(C)Nc1cncc(-c2ccc3[nH]nc(-c4nc5c(-c6cc(F)cc(NCCN(C)C)c6)cncc5[nH]4)c3n2)c1 [Compound 432, N^1-(3-Fluoro-5-(2-(5-(5-(isopropylamino)pyridin-3-yl)-1H-pyrazolo[4,3-b]pyridin-3-yl)-3H-imidazo[4,5-c]pyridin-7-yl)phenyl)-N^2,N^2-dimethylethane-1,2-diamine] | 1660 nM | 5360 nM | 6400 nM |  |  |  |
| Cc1ccncc1-c1ccc2[nH]nc(-c3nc4c(-c5cc(F)cc(CNS(C)(=O)=O)c5)cncc4[nH]3)c2n1 [Compound 453, N-(3-Fluoro-5-(2-(5-(4-methylpyridin-3-yl)-1H-pyrazolo[4,3-b]pyridin-3-yl)-3H-imidazo[4,5-c]pyridin-7-yl)benzyl)methanesulfonamide] | 3210 nM | > 10000 nM | > 10000 nM | 0% |  | 37.3% |
| CN(C)CCOc1cncc(-c2ccc3[nH]nc(-c4nc5c(-c6cccc(F)c6)cncc5[nH]4)c3n2)c1 [Compound 487, 2-((5-(3-(7-(3-Fluorophenyl)-3H-imidazo[4,5-c]pyridin-2-yl)-1H-pyrazolo[4,3-b]pyridin-5-yl)pyridin-3-yl)oxy)-N,N-dimethylethan-1-amine] | 3440 nM | 5540 nM | > 10000 nM | 30.7% |  |  |
| COc1cncc(-c2ccc3[nH]nc(-c4nc5c(-c6cccc(F)c6)cncc5[nH]4)c3n2)c1 [Compound 488, 3-(7-(3-Fluorophenyl)-3H-imidazo[4,5-c]pyridin-2-yl)-5-(5-methoxylpyridin-3-yl)-1H-pyrazolo[4,3-b]pyridine] | 24 nM | > 10000 nM | > 10000 nM | 0% |  | 0% |
| O=C(CC1CCNCC1)Nc1cncc(-c2ccc3[nH]nc(-c4nc5c(-c6ccccn6)cncc5[nH]4)c3n2)c1 [Compound 565, 2-(Piperidin-4-yl)-N-(5-(3-(7-(pyridin-2-yl)-3H-imidazo[4,5-c]pyridin-2-yl)-1H-pyrazolo[4,3-b]pyridin-5-yl)pyridin-3-yl)acetamide] | > 10000 nM | > 10000 nM | 839 nM |  | 44.2% | 5.1% |
| c1ncc(-c2ccc3[nH]nc(-c4nc5c(N6CCCCC6)cncc5[nH]4)c3n2)cc1OCCN1CCCC1 [Compound 582, 3-(7-(Piperidin-1-yl)-3H-imidazo[4,5-c]pyridin-2-yl)-5-(5-(2-(pyrrolidin-1-yl)ethoxy)pyridin-3-yl)-1H-pyrazolo[4,3-b]pyridine] | > 10000 nM | > 10000 nM | 3320 nM |  | 6.6% | 15.8% |
